Data as given in patent US20250205384A1, “HEMOSTATIC MATERIAL” (Toray Industries, Inc., priority 2018, published 2025).

Assays:
[1] = Thickness of lipid membrane from SEM observation image; type: physicochemical; conditions: lipid on PLLA fiber sheet, SEM ×5,000 (FIGS. 17 to 20)
Procedure: The thickness of the lipid membrane is preferably 10 to 1,000 nm, more preferably 30 to 500 nm, and still more preferably 60 to 240 nm. The method of measuring the lipid membrane is as follows. The lipid membrane is observed with a scanning electron microscope (SEM). The thickness of five points optionally selected in the SEM observation image is measured, and the mean is regarded as the thickness of the lipid membrane.
An SEM observation image (×1,000) of the base complex before supporting a lipid is shown in FIG. 9, and SEM observation images (×1,000) of the hemostatic materials E2 to E8 are shown in FIGS. 10 to 16, respectively.

[2] = Solubility in t-butyl alcohol; conditions: in words
guinea pig-derived PRP = assay: Evaluation of platelet aggregation capacity of hemostatic material (in vitro), protein assay of attached platelets; type: cell-based; conditions: lipid supported on base part in place of DHSG lipids
Procedure: From the hemostatic materials D1, D2, D3 and D4, a base part (fiber sheet part) supporting DHSG, Asp-DHSG, Glu-DHSG and AG-DHSG, respectively, was taken out. To a 12-well plate, the base part (fiber sheet part) that was taken out and 1 mL of guinea pig-derived PRP (2.0×10^5/μL) prepared by the abovementioned method were added. Thereafter, ADP (1 μM, 100 μL) that activates platelets was added, and after allowing to stand at room temperature for 5 minutes, the mixture was washed with 1 mL of DPBS twice. Thereafter, to dissolve platelets attached to the base part (fiber sheet part), 500 μL of 0.5% Triton X was added, followed by allowing to stand at room temperature for 1 hour to obtain a platelet lysate. To a 96-well plate, 10 μL of the platelet lysate prepared by the abovementioned method and 150 μL of Pierce (trademark) 660 nm Protein Assay Kit were added, followed by allowing to stand for 5 minutes. By measuring absorbance at 660 nm using a microplate reader, proteins were quantitatively determined, and the determination results were used as an index of the count of platelets which were not washed away and were attached to the fiber sheet. The results in FIG. 8 are relative values when the platelet count in using the hemostatic material D1 is regarded as 1. […]

| SMILES | thickness of the lipid membrane [1] | further results |
| --- | --- | --- |
| CCCCCCCCCCCCCCCCOC(=O)CCC(NC(=O)CCC(=O)NC(CCC(=O)NC(CC(=O)O)C(=O)O)C(=O)NC(CC(=O)O)C(=O)O)C(=O)OCCCCCCCCCCCCCCCC (stereo not drawn) [AG-DHSG] | 124 nm |  |
| CCCCCCCCCCCCCCCC(=O)OCC(COP(=O)(O)O)OC(=O)CCCCCCCCCCCCCCC (stereo not drawn) [Anionic DPPA] |  | solubility in t-butyl alcohol compared with the DPPA sodium salt [2]: higher solubility in t-butyl alcohol |
| CCCCCCCCCCCCCCCC(=O)OC[C@H](COP(=O)([O-])OCC[N+](C)(C)C)OC(=O)CCCCCCCCCCCCCCC [DPPC, 1,2-dipalmitoyl-sn-glycero-3-phosphatidylcholine] |  | platelets detected on the base part (fiber sheet part) after washing (guinea pig-derived PRP): no platelets were detected |
| CCCCCCCCCCCCCCCCOC(=O)CCC(NC(=O)CCC(=O)NC(CCC(=O)O)C(=O)O)C(=O)OCCCCCCCCCCCCCCCC (stereo not drawn) [Glu-DHSG] | 187 nm |  |

Second part, led by results:

| thickness of the lipid membrane [1] | SMILES | further results |
| --- | --- | --- |
| 153 nm | CCCCCCCCCCCCCCCCOC(=O)CCC(NC(=O)CCC(=O)NC(CC(=O)O)C(=O)O)C(=O)OCCCCCCCCCCCCCCCC (stereo not drawn) [Asp-DHSG] |  |
| 131 nm | CCCCCCCCCCCCCCCCOC(=O)CCC(NC(=O)CCC(=O)O)C(=O)OCCCCCCCCCCCCCCCC [DHSG, 1,5-Dihexadecyl-N-Succinyl-L-Glutamate] |  |
